Assay results as given in publication PMC11106165, “Repurposing the KCa3.1 Blocker Senicapoc for Ischemic Stroke” (Translational Stroke Research, 2023).

Legend:
[1] = set-up: method as in PMID 22675649; conditions: cited from earlier work
human tPA = target: T1, human tPA (Homo sapiens, UniProt P00750); experiment: Chromogenic tPA activity assay; assay type: biochemical; conditions: 30-min assay
T1 construct: purchased Abcam ab108905
Source text: The commercially available tPA Activity Assay Kit (Abcam, ab108905) was used to assess whether senicapoc and TRAM-34 affect the ability of human tPA to cleave its substrate plasminogen similar to protocols published by Lapchak and Boitano [38] and Lapchak et al.. Reactions were run in optically clear flat-bottom 96-well plates (Corning, Catalog #3904). Human plasminogen activator inhibitor-1 (PAI-1; Sigma-Aldrich CC4075) was used as a positive control. Human plasminogen, the chromogenic plasmin substrate, and human tPA were included in the tPA Activity Assay Kit. […] The reactions were pre-incubated at 37 °C for 5 min prior to the addition of the chromogenic plasmin substrate and subsequently placed in a heated SpectraMax M5 spectrophotometer. Absorbances at 405 nm were measured every 30 s for 30 min.

rats or mice, tMCAO = system: rats or mice, tMCAO; set-up: method as in PMID 21750563, PMID 26661208; conditions: cited from earlier work

T1 sequence (P00750 36-562): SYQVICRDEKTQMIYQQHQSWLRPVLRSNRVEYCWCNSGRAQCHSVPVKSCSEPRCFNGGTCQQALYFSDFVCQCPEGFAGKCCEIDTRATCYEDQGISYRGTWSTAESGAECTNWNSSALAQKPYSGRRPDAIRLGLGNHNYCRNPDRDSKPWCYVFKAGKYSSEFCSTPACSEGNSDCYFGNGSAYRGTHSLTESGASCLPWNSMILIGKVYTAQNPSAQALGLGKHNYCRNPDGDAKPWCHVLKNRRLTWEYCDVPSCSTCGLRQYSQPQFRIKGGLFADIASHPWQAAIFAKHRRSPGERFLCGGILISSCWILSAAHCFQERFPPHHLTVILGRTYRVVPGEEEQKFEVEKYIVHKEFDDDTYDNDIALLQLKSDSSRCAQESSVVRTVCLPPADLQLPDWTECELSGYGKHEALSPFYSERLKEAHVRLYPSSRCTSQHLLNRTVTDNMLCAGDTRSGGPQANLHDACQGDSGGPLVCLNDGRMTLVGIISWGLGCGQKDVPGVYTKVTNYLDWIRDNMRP

effect on tPA activity (absorbance at 405 nm) (human tPA; positive control) | Molecule | metabolic stability [1] | oral availability [1] | half-life ([1]; rats and primates) | effect on tPA activity (absorbance at 405 nm) (human tPA; 0.5 μM and 5 μM, PBS with 10% human serum) | reduction in infarct area (rats or mice, tMCAO; MCAO, 11 animals per group) | infarct area (rats or mice, tMCAO; rats or mice, 8 days after tMCAO with reperfusion)
 | Clc1ccccc1C(c1ccccc1)(c1ccccc1)n1cccn1 [TRAM-34] | metabolic instability | not orally available | ~ 2 h | do not interfere with tPA activity | ~ 50% | significantly smaller infarct areas
strongly inhibited | plasminogen activator inhibitor-1 [PAI-1] |  |  |  |  |  | 
